Experimental data reported in PubChem BioAssay (NCI).
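Step 1: Grow cells in 96-well plates. Step 2: Expose to compound for 48 hours at 5 concentrations. Step 3: Interpolate endpoints linearly; if unreached, use highest concentration. Here, GI50 denotes the concentration required for 50% inhibition of growth. TGI marks complete inhibition of growth.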

Legend:
Assay in all cases: NCI anticancer screen, dose series, 48 h
786-0 renal = system: 786-0 renal
DU-145 prostate = system: DU-145 prostate
HCT-15 colon = system: HCT-15 colon
IGROV1 ovarian = system: IGROV1 ovarian
LOX IMVI melanoma = system: LOX IMVI melanoma
OVCAR-3 ovarian = system: OVCAR-3 ovarian
RPMI-8226 leukemia = system: RPMI-8226 leukemia
SW-620 colon = system: SW-620 colon
TK-10 renal = system: TK-10 renal
HOP-18 NSCLC = system: HOP-18 NSCLC
LXFL 529 NSCLC = system: LXFL 529 NSCLC

With `CC(C)O/N=C/c1cc(NC(=S)OC(C)C)ccc1Cl` the TGI (786-0 renal) was over 65.6 µM, the TGI (DU-145 prostate) was over 100 µM and the TGI (HCT-15 colon) was over 66.1 µM. The TGI (IGROV1 ovarian) was over 94.1 µM, the TGI (LOX IMVI melanoma) was over 52.5 µM and the TGI (OVCAR-3 ovarian) was over 52.6 µM. The TGI (RPMI-8226 leukemia) was 54.2 µM, the TGI (SW-620 colon) was over 72.6 µM and the TGI (TK-10 renal) was over 100 µM.
Work on `Cn1c(=O)c2c(nc3n2CCCC(=O)N3CC(O)CCl)n(C)c1=O` (configuration not stated) yielded a TGI (786-0 renal) of over 100 µM, a TGI (DU-145 prostate) of over 100 µM and a TGI (HCT-15 colon) of over 100 µM. It also gave a TGI (IGROV1 ovarian) of over 100 µM, a TGI (LOX IMVI melanoma) of over 100 µM and a TGI (OVCAR-3 ovarian) of over 100 µM. For the same molecule, the TGI (RPMI-8226 leukemia) was over 100 µM, the TGI (SW-620 colon) was over 100 µM and the TGI (TK-10 renal) was over 100 µM.
`CCOC(=O)C1c2[nH]c3ccccc3c2CCN1C(=O)c1ccc(OC)o1` (configuration not stated) was tested, and the TGI (786-0 renal) was over 10 µM, the TGI (DU-145 prostate) was over 10 µM and the TGI (HCT-15 colon) was over 10 µM. For the same molecule, the TGI (IGROV1 ovarian) was over 10 µM, the TGI (LOX IMVI melanoma) was over 10 µM and the TGI (OVCAR-3 ovarian) was over 10 µM. For the same molecule, the TGI (RPMI-8226 leukemia) was over 10 µM, the TGI (SW-620 colon) was over 10 µM and the TGI (TK-10 renal) was over 10 µM.
`CSc1nc(NC2OC(COC(C)=O)C(OC(C)=O)C(OC(C)=O)C2OC(C)=O)c2c(n1)OCC2=O` (configuration not stated) was tested, and the TGI (786-0 renal) was over 100 µM, the TGI (HCT-15 colon) was over 100 µM and the TGI (HOP-18 NSCLC) was over 100 µM. For the same molecule, the TGI (IGROV1 ovarian) was over 100 µM, the TGI (LOX IMVI melanoma) was over 100 µM and the TGI (LXFL 529 NSCLC) was over 100 µM. For the same molecule, the TGI (OVCAR-3 ovarian) was over 100 µM, the TGI (RPMI-8226 leukemia) was over 100 µM and the TGI (SW-620 colon) was over 100 µM. For the same molecule, the TGI (TK-10 renal) was over 100 µM.
Molecule `COC(=O)C(Cc1c[nH]c2ccccc12)NC(=O)c1ccc(-c2ccc(Cl)cc2Cl)o1` (configuration not stated) has a TGI (786-0 renal) of over 100 µM, a TGI (DU-145 prostate) of over 100 µM and a TGI (HCT-15 colon) of over 100 µM. For the same molecule, the TGI (IGROV1 ovarian) was over 100 µM, the TGI (LOX IMVI melanoma) was over 100 µM and the TGI (OVCAR-3 ovarian) was over 100 µM. It also gave a TGI (RPMI-8226 leukemia) of over 100 µM, a TGI (SW-620 colon) of over 100 µM and a TGI (TK-10 renal) of over 100 µM.
`COc1cc(C2c3cc4c(cc3OC(NNS(=O)(=O)c3ccc(C)cc3)C2C)OCO4)cc(OC)c1O` (configuration not stated) showed a TGI (786-0 renal) of 42.9 µM, a TGI (DU-145 prostate) of over 100 µM and a TGI (HCT-15 colon) of 22.6 µM. The TGI (IGROV1 ovarian) was 30.8 µM, the TGI (LOX IMVI melanoma) was 52.3 µM and the TGI (OVCAR-3 ovarian) was 50 µM. For the same molecule, the TGI (RPMI-8226 leukemia) was 41.9 µM, the TGI (SW-620 colon) was over 100 µM and the TGI (TK-10 renal) was 39.9 µM.
`COc1ccccc1-c1cc(=O)c2cc3c(cc2[nH]1)OCO3` gave a TGI (786-0 renal) of over 100 µM, a TGI (HCT-15 colon) of over 100 µM and a TGI (IGROV1 ovarian) of over 100 µM. It also gave a TGI (LOX IMVI melanoma) of over 100 µM, a TGI (LXFL 529 NSCLC) of over 100 µM and a GI50 (OVCAR-3 ovarian) of 39.9 µM. It also gave a TGI (OVCAR-3 ovarian) of over 100 µM, a TGI (RPMI-8226 leukemia) of over 100 µM and a TGI (SW-620 colon) of over 100 µM. For the same molecule, the TGI (TK-10 renal) was over 100 µM.
With `Cc1cc(Cc2cc(C)c(NC(=O)C(=O)C3CCC4=C(SC5C=CC=CC5N4)C3=O)c(C(C)C)c2)cc(C(C)C)c1NC(=O)C(=O)C1CCC2=C(SC3C=CC=CC3N2)C1=O` (configuration not stated) the TGI (786-0 renal) was over 100 µM, the TGI (DU-145 prostate) was over 100 µM and the TGI (HCT-15 colon) was over 100 µM. For the same molecule, the TGI (IGROV1 ovarian) was over 100 µM, the TGI (LOX IMVI melanoma) was over 100 µM and the TGI (OVCAR-3 ovarian) was over 100 µM. It also gave a TGI (RPMI-8226 leukemia) of over 100 µM, a TGI (SW-620 colon) of over 100 µM and a TGI (TK-10 renal) of over 100 µM.
Molecule `O=c1c2cc3c(=O)n4c(cc(-c5ccccc5)c5cc(Cl)ccc54)nc3cc2nc2cc(-c3ccccc3)c3cc(Cl)ccc3n12` has a TGI (786-0 renal) of over 100 µM, a TGI (DU-145 prostate) of over 100 µM and a TGI (HCT-15 colon) of over 100 µM. It also gave a TGI (IGROV1 ovarian) of over 100 µM, a TGI (LOX IMVI melanoma) of over 100 µM and a TGI (OVCAR-3 ovarian) of over 100 µM. It also gave a TGI (RPMI-8226 leukemia) of over 100 µM, a TGI (SW-620 colon) of over 100 µM and a TGI (TK-10 renal) of over 100 µM.
`COc1ccc(-c2cc(=O)c3cc(OC)ccc3[nH]2)cc1` showed a TGI (786-0 renal) of over 100 µM, a TGI (HOP-18 NSCLC) of over 100 µM and a TGI (IGROV1 ovarian) of over 100 µM. It also gave a TGI (LOX IMVI melanoma) of over 100 µM, a TGI (LXFL 529 NSCLC) of over 100 µM and a TGI (OVCAR-3 ovarian) of over 100 µM. The TGI (RPMI-8226 leukemia) was over 100 µM, the TGI (SW-620 colon) was over 100 µM and the TGI (TK-10 renal) was over 100 µM.
For `COc1ccc(/C(Cl)=C(\C=N/O)c2ccc(OC)c(OC)c2)cc1OC`, the TGI (786-0 renal) was over 100 µM, the TGI (HCT-15 colon) was over 100 µM and the TGI (HOP-18 NSCLC) was over 100 µM. The TGI (IGROV1 ovarian) was over 100 µM, the TGI (LOX IMVI melanoma) was over 100 µM and the TGI (LXFL 529 NSCLC) was over 100 µM. The TGI (OVCAR-3 ovarian) was over 100 µM, the TGI (RPMI-8226 leukemia) was over 100 µM and the TGI (SW-620 colon) was over 100 µM. It also gave a TGI (TK-10 renal) of over 100 µM.
Molecule `CCOC(=O)C(Cc1ccc(OC(=O)c2ccc(OC)cc2)cc1)NC(=O)C(F)(F)F` (configuration not stated) has a TGI (786-0 renal) of over 100 µM, a TGI (DU-145 prostate) of over 100 µM and a TGI (HCT-15 colon) of over 100 µM. The TGI (IGROV1 ovarian) was over 100 µM, the TGI (LOX IMVI melanoma) was over 100 µM and the TGI (OVCAR-3 ovarian) was over 100 µM. The TGI (RPMI-8226 leukemia) was over 100 µM, the TGI (SW-620 colon) was over 100 µM and the TGI (TK-10 renal) was over 100 µM.
Molecule `NC(=O)Cc1nc2c(N)ncnc2n1C1OC(CO)C(O)C1O` (configuration not stated) has a TGI (786-0 renal) of over 100 µM, a TGI (DU-145 prostate) of over 100 µM and a TGI (HCT-15 colon) of over 100 µM. The TGI (IGROV1 ovarian) was over 100 µM, the TGI (LOX IMVI melanoma) was over 100 µM and the TGI (OVCAR-3 ovarian) was over 100 µM. It also gave a TGI (RPMI-8226 leukemia) of over 100 µM, a TGI (SW-620 colon) of over 100 µM and a TGI (TK-10 renal) of over 100 µM.
`CCCCCCCCCCCCCCCCCCNC(=S)/N=C\C1=C(O)c2ccccc2C1=O` gave a TGI (786-0 renal) of 21.2 µM, a TGI (DU-145 prostate) of 19.2 µM and a TGI (HCT-15 colon) of 26.7 µM. It also gave a TGI (IGROV1 ovarian) of 5.62 µM, a TGI (LOX IMVI melanoma) of 17 µM and a TGI (OVCAR-3 ovarian) of 29.1 µM. It also gave a TGI (RPMI-8226 leukemia) of 33.1 µM, a TGI (SW-620 colon) of 25.3 µM and a TGI (TK-10 renal) of 30.6 µM.
For `Cc1ccc(S(=O)(=O)Oc2nc3ccccc3nc2OS(=O)(=O)c2ccc(C)cc2)cc1`, the TGI (786-0 renal) was over 100 µM, the TGI (DU-145 prostate) was over 100 µM and the TGI (HCT-15 colon) was over 100 µM. The TGI (IGROV1 ovarian) was over 100 µM, the TGI (LOX IMVI melanoma) was over 100 µM and the TGI (OVCAR-3 ovarian) was over 100 µM. For the same molecule, the TGI (RPMI-8226 leukemia) was over 100 µM, the TGI (SW-620 colon) was over 100 µM and the TGI (TK-10 renal) was over 100 µM.
`COC(=O)C1(C#N)C(C)(C)N=C(c2ccccc2)C12CCCCC2` (configuration not stated) showed a TGI (786-0 renal) of over 100 µM, a TGI (DU-145 prostate) of over 100 µM and a TGI (HCT-15 colon) of over 100 µM. For the same molecule, the TGI (IGROV1 ovarian) was over 100 µM, the TGI (LOX IMVI melanoma) was over 100 µM and the TGI (OVCAR-3 ovarian) was over 100 µM. The TGI (RPMI-8226 leukemia) was over 100 µM, the TGI (SW-620 colon) was over 100 µM and the TGI (TK-10 renal) was over 100 µM.
